In patent US11608335B2, “Somatostatin modulators and uses thereof” (CRINETICS PHARMACEUTICALS, INC., priority 2018, dated 2023):
Where two headings read alike, the source gives them in different places. Values belong to the compound of their own block, whether it stands above or below them.

Assays:
[1] = target: T1, human somatostatin receptor subtype 2 (Homo sapiens, UniProt P30874); test: cAMP assay for SST2R (inhibition of cAMP via human SST2 receptor); assay type: cell-based; details: Table B, read-out: SST2 potency
T1 construct: expressed in transfected cells
From the text: cAMP Assay Protocol for SST2R:

[2] = target: human somatostatin receptor subtype 5 (Homo sapiens, UniProt P35346); test: cAMP assay for SST5R (inhibition of cAMP via human SST5 receptor)
[3] = read-out: SST5 potency, inhibition of cAMP via human SST5 receptor, Table B

Chain of human somatostatin receptor subtype 5 (P35346 whole entry): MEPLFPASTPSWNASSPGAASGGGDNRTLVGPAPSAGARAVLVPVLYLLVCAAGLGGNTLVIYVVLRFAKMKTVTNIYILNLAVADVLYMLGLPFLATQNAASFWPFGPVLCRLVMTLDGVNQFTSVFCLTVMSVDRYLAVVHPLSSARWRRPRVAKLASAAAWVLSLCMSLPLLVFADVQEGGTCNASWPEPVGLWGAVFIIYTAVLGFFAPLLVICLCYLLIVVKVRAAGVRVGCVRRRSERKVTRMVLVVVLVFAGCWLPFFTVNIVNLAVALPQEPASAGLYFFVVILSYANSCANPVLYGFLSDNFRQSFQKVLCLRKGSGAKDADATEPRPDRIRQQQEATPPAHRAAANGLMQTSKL
T1 sequence (P30874 whole entry): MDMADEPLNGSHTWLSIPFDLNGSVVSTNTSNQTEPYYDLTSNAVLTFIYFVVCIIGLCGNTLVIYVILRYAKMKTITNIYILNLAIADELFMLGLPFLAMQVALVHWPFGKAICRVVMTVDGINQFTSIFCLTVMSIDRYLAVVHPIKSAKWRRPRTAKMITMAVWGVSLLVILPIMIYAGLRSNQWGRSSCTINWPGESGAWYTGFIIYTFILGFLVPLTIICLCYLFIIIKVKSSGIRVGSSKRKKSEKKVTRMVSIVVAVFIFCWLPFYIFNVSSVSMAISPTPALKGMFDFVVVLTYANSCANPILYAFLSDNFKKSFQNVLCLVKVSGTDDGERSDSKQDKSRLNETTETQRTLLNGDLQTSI

SMILES: Cc1cc(F)cc(-c2cncc(-c3nc4cc(C)ccc4[nH]3)c2N2CC(CN)C2)c1 [Compound 1-10, 1-{1-[3-(3-fluoro-5-methylphenyl)-5-(5-methyl-1H-1,3-benzodiazol-2-yl)pyridin-4-yl]azetidin-3-yl}methanamine]
EC50 [1]: > 1000 nM
EC50 [2]: < 10 nM
Fold selectivity for SST5 vs SST2 ([2]; SST5 over SST2, class symbols): +++ (+++=≥500)
EC50 [2, 3]: < 10 nM

SMILES: Cc1ccc(F)c2[nH]c(-c3cncc(-c4ccnc(C#N)c4)c3N3CC[C@H](N)C3)nc12 [Compound 2-106, 4-[(3S)-3-aminopyrrolidin-1-yl]-5-(7-fluoro-4-methyl-1H-1,3-benzodiazol-2-yl)-[3,4′-bipyridine]-2′-carbonitrile]
EC50 [1]: 100 to 1000 nM
EC50 [2]: < 10 nM
Fold selectivity for SST5 vs SST2 ([2]; SST5 over SST2, class symbols): +++ (+++=≥500)
EC50 [2, 3]: < 10 nM

SMILES: Cc1cc(-c2cncc(-c3nc4c(F)cccc4[nH]3)c2N2CC[C@H](N)C2)ccn1 [Compound 2-181, (3S)-1-[5-(4-fluoro-1H-1,3-benzodiazol-2-yl)-2′-methyl-[3,4′-bipyridin]-4-yl]pyrrolidin-3-amine]
EC50 [1]: > 1000 nM
EC50 [2]: 10 to 100 nM
Fold selectivity for SST5 vs SST2 ([2]; SST5 over SST2, class symbols): ++ (++=100 to 499)
EC50 [2, 3]: 10 to 100 nM

SMILES: C[C@]1(N)CCN(c2c(-c3ccc(F)c(C#N)c3)cncc2-c2nc3ncccc3[nH]2)C1 [Compound 2-167, 5-{4-[(3S)-3-amino-3-methylpyrrolidin-1-yl]-5-{1H-imidazo[4,5-b]pyridin-2-yl}pyridin-3-yl}-2-fluorobenzonitrile]
EC50 [1]: > 1000 nM
EC50 [2]: < 10 nM
Fold selectivity for SST5 vs SST2 ([2]; SST5 over SST2, class symbols): +++ (+++=≥500)
EC50 [2, 3]: < 10 nM

SMILES: C[C@]1(N)CCN(c2c(-c3cccc(C#N)c3)cncc2-c2nc3cccc(C#N)c3[nH]2)C1 [Compound 2-177, 2-{4-[(3 S)-3-amino-3-methylpyrrolidin-1-yl]-5-(3-cyanophenyl)pyridin-3-yl}-1H-1,3-benzodiazole-7-carbonitrile]
EC50 [1]: 100 to 1000 nM
EC50 [2]: < 10 nM
Fold selectivity for SST5 vs SST2 ([2]; SST5 over SST2, class symbols): +++ (+++=≥500)
EC50 [2, 3]: < 10 nM

SMILES: Cc1ccnc2nc(-c3cncc(-c4cccc(C#N)c4)c3N3CCC(C)(N)C3)[nH]c12 (stereo not drawn) [Compound 2-122, 3-[4-(3-amino-3-methylpyrrolidin-1-yl)-5-{7-methyl-1H-imidazo[4,5-b]pyridin-2-yl}pyridin-3-yl]benzonitrile]
EC50 [1]: 100 to 1000 nM
EC50 [2]: < 10 nM
Fold selectivity for SST5 vs SST2 ([2]; SST5 over SST2, class symbols): ++ (++=100 to 499)
EC50 [2, 3]: < 10 nM

SMILES: Cc1ccc(-c2cncc(-c3nc4c(F)ccc(F)c4[nH]3)c2N2CC[C@H](N)C2)cc1C#N [Compound 2-49, 5-{4-[(3S)-3-aminopyrrolidin-1-yl]-5-(4,7-difluoro-1H-1,3-benzodiazol-2-yl)pyridin-3-yl}-2-methylbenzonitrile]
EC50 [1]: 100 to 1000 nM
EC50 [2]: < 10 nM
Fold selectivity for SST5 vs SST2 ([2]; SST5 over SST2, class symbols): ++ (++=100 to 499)
EC50 [2, 3]: < 10 nM

SMILES: Cc1ccnc2nc(-c3cncc(-c4cccc(Cl)c4)c3N3CC[C@](C)(N)C3)[nH]c12 [Compound 2-180, (3S)-1-[3-(3-chlorophenyl)-5-{7-methyl-1H-imidazo[4,5-b]pyridin-2-yl}pyridin-4-yl]-3-methylpyrrolidin-3-amine]
EC50 [1]: 10 to 100 nM
EC50 [2]: < 10 nM
Fold selectivity for SST5 vs SST2 ([2]; SST5 over SST2, class symbols): ++ (++=100 to 499)
EC50 [2, 3]: < 10 nM

SMILES: CC1(N)CCN(c2c(-c3cc(F)cc(C#N)c3)cncc2-c2nc3cccc(F)c3[nH]2)C1 (stereo not drawn) [Compound 2-6, 3-[4-(3-amino-3-methylpyrrolidin-1-yl)-5-(4-fluoro-1H-1,3-benzodiazol-2-yl)pyridin-3-yl]-5-fluorobenzonitrile]
EC50 [1]: 100 to 1000 nM
EC50 [2]: < 10 nM
Fold selectivity for SST5 vs SST2 ([2]; SST5 over SST2, class symbols): +++ (+++=≥500)
EC50 [2, 3]: < 10 nM

SMILES: Cc1cncc2nc(-c3cncc(-c4ccc(F)c(C#N)c4)c3N3CCC(C)(N)C3)[nH]c12 (stereo not drawn) [Compound 2-149, 5-[4-(3-amino-3-methylpyrrolidin-1-yl)-5-{7-methyl-3H-imidazo[4,5-c]pyridin-2-yl}pyridin-3-yl]-2-fluorobenzonitrile]
EC50 [1]: 100 to 1000 nM
EC50 [2]: < 10 nM
Fold selectivity for SST5 vs SST2 ([2]; SST5 over SST2, class symbols): ++ (++=100 to 499)
EC50 [2, 3]: < 10 nM

SMILES: Cc1cc(F)cc(-c2cncc(-c3nc4c(F)ccc(F)c4[nH]3)c2N2CC(CN)C2)c1 [Compound 1-37, 1-{1-[3-(4,7-difluoro-1H-1,3-benzodiazol-2-yl)-5-(3-fluoro-5-methylphenyl)pyridin-4-yl]azetidin-3-yl}methanamine]
EC50 [1]: > 1000 nM
EC50 [2]: < 10 nM
Fold selectivity for SST5 vs SST2 ([2]; SST5 over SST2, class symbols): +++ (+++=≥500)
EC50 [2, 3]: < 10 nM

SMILES: Cc1ccnc2nc(-c3cncc(-c4cc(F)cc(C#N)c4)c3N3CCC(C)(N)C3)[nH]c12 (stereo not drawn) [Compound 2-108, 3-[4-(3-amino-3-methylpyrrolidin-1-yl)-5-{7-methyl-1H-imidazo[4,5-b]pyridin-2-yl}pyridin-3-yl]-5-fluorobenzonitrile]
EC50 [1]: 100 to 1000 nM
EC50 [2]: < 10 nM
Fold selectivity for SST5 vs SST2 ([2]; SST5 over SST2, class symbols): ++ (++=100 to 499)
EC50 [2, 3]: < 10 nM

SMILES: Cc1cnc2nc(-c3cncc(-c4ccc(F)c(C#N)c4)c3N3CC[C@](C)(N)C3)[nH]c2c1 [Compound 2-170, 5-{4-[(3S)-3-amino-3-methylpyrrolidin-1-yl]-5-{6-methyl-1H-imidazo[4,5-b]pyridin-2-yl}pyridin-3-yl}-2-fluorobenzonitrile]
EC50 [1]: > 1000 nM
EC50 [2]: < 10 nM
Fold selectivity for SST5 vs SST2 ([2]; SST5 over SST2, class symbols): +++ (+++=≥500)
EC50 [2, 3]: < 10 nM

SMILES: N#Cc1cc(-c2cncc(-c3nc4cccc(F)c4[nH]3)c2N2CC[C@H](N)C2)ccc1F [Compound 2-23, 5-{4-[(3S)-3-aminopyrrolidin-1-yl]-5-(4-fluoro-1H-1,3-benzodiazol-2-yl)pyridin-3-yl}-2-fluorobenzonitrile]
EC50 [1]: 100 to 1000 nM
EC50 [2]: < 10 nM
Fold selectivity for SST5 vs SST2 ([2]; SST5 over SST2, class symbols): +++ (+++=≥500)
EC50 [2, 3]: < 10 nM

SMILES: N#Cc1cc(-c2cncc(-c3nc4ccc(F)c(F)c4[nH]3)c2N2CC[C@H](N)C2)ccc1F [Compound 2-52, 5-{4-[(3S)-3-aminopyrrolidin-1-yl]-5-(4,5-difluoro-1H-1,3-benzodiazol-2-yl)pyridin-3-yl}-2-fluorobenzonitrile]
EC50 [1]: 100 to 1000 nM
EC50 [2]: < 10 nM
Fold selectivity for SST5 vs SST2 ([2]; SST5 over SST2, class symbols): +++ (+++=≥500)
EC50 [2, 3]: < 10 nM

SMILES: Cc1ccnc2[nH]c(-c3cncc(-c4cccc(C#N)c4)c3N3CC[C@](C)(N)C3)nc12 [Compound 2-155, 3-{4-[(3S)-3-amino-3-methylpyrrolidin-1-yl]-5-{7-methyl-1H-imidazo[4,5-b]pyridin-2-yl}pyridin-3-yl}benzonitrile]
EC50 [1]: 100 to 1000 nM
EC50 [2]: < 10 nM
Fold selectivity for SST5 vs SST2 ([2]; SST5 over SST2, class symbols): ++ (++=100 to 499)
EC50 [2, 3]: < 10 nM

More lines, now with the values ahead:

EC50 [1]: 100 to 1000 nM
EC50 [2]: < 10 nM
Fold selectivity for SST5 vs SST2 ([2]; SST5 over SST2, class symbols): ++ (++=100 to 499)
EC50 [2, 3]: < 10 nM
SMILES: Cc1cc(F)cc(-c2cncc(-c3nc4cccc(Cl)c4[nH]3)c2N2CC[C@H](N)C2)c1 [Compound 2-197, (3S)-1-[3-(7-chloro-1H-1,3-benzodiazol-2-yl)-5-(3-fluoro-5-methylphenyl)pyridin-4-yl]pyrrolidin-3-amine]

EC50 [1]: 100 to 1000 nM
EC50 [2]: < 10 nM
Fold selectivity for SST5 vs SST2 ([2]; SST5 over SST2, class symbols): ++ (++=100 to 499)
EC50 [2, 3]: < 10 nM
SMILES: Cc1cc(F)cc(-c2cncc(-c3nc4cccc(Cl)c4[nH]3)c2N2CC(CN)C2)c1 [Compound 1-3, 1-{1-[3-(4-chloro-1H-1,3-benzodiazol-2-yl)-5-(3-fluoro-5-methylphenyl)pyridin-4-yl]azetidin-3-yl}methanamine]

EC50 [1]: > 1000 nM
EC50 [2]: 100 to 1000 nM
Fold selectivity for SST5 vs SST2 ([2]; SST5 over SST2, class symbols): + (+=10 to 99)
EC50 [2, 3]: 100 to 1000 nM
SMILES: Cc1cccc(-c2cncc(-c3nc4cccc(C)c4[nH]3)c2N2CC[C@@H](N)C2)c1 [Compound 2-199, (3R)-1-[3-(4-methyl-1H-1,3-benzodiazol-2-yl)-5-(3-methylphenyl)pyridin-4-yl]pyrrolidin-3-amine]

EC50 [1]: 10 to 100 nM
EC50 [2]: < 10 nM
Fold selectivity for SST5 vs SST2 ([2]; SST5 over SST2, class symbols): ++ (++=100 to 499)
EC50 [2, 3]: < 10 nM
SMILES: Cc1cccc2nc(-c3cncc(-c4cc(F)c(F)c(C#N)c4)c3N3CC[C@H](N)C3)[nH]c12 [Compound 2-139, 5-{4-[(3S)-3-aminopyrrolidin-1-yl]-5-(4-methyl-1H-1,3-benzodiazol-2-yl)pyridin-3-yl}-2,3-difluorobenzonitrile]

EC50 [1]: > 1000 nM
EC50 [2]: < 10 nM
Fold selectivity for SST5 vs SST2 ([2]; SST5 over SST2, class symbols): +++ (+++=≥500)
EC50 [2, 3]: < 10 nM
SMILES: Cn1c(-c2cncc(-c3cc(F)cc(C#N)c3)c2N2CC[C@H](N)C2)nc2c(Cl)cccc21 [Compound 2-116, 3-{4-[(3S)-3-aminopyrrolidin-1-yl]-5-(4-chloro-1-methyl-1H-1,3-benzodiazol-2-yl)pyridin-3-yl}-5-fluorobenzonitrile]

EC50 [1]: < 10 nM
EC50 [2]: 100 to 1000 nM
Fold selectivity for SST5 vs SST2 ([2]; SST5 over SST2, given as number (comparison compounds)): 0.0008
SMILES: Cc1cc(F)cc(-c2cncc(-c3nc4cccc(Cl)c4[nH]3)c2N2CCC(N)CC2)c1

EC50 [1]: > 1000 nM
EC50 [2]: 10 to 100 nM
Fold selectivity for SST5 vs SST2 ([2]; SST5 over SST2, class symbols): +++ (+++=≥500)
EC50 [2, 3]: 10 to 100 nM
SMILES: Cc1cc(F)cc(-c2cncc(-c3nc4cccc(C#N)c4[nH]3)c2N2CC(CN)C2)c1 [Compound 1-5, 2-{4-[3-(aminomethyl)azetidin-1-yl]-5-(3-fluoro-5-methylphenyl)pyridin-3-yl}-1H-1,3-benzodiazole-4-carbonitrile]

EC50 [1]: 100 to 1000 nM
EC50 [2]: < 10 nM
Fold selectivity for SST5 vs SST2 ([2]; SST5 over SST2, class symbols): ++ (++=100 to 499)
EC50 [2, 3]: < 10 nM
SMILES: Cc1cccc2nc(-c3cncc(-c4cc(F)cc(C(N)=O)c4)c3N3CC[C@H](N)C3)[nH]c12 [Compound 2-65, 3-{4-[(3S)-3-aminopyrrolidin-1-yl]-5-(4-methyl-1H-1,3-benzodiazol-2-yl)pyridin-3-yl}-5-fluorobenzamide]

EC50 [1]: > 1000 nM
EC50 [2]: < 10 nM
Fold selectivity for SST5 vs SST2 ([2]; SST5 over SST2, class symbols): +++ (+++=≥500)
EC50 [2, 3]: < 10 nM
SMILES: Cc1cc(F)cc(-c2cncc(-c3nc4cccc(C)c4[nH]3)c2N2CC(CN)C2)c1 [Compound 1-9, 1-{1-[3-(3-fluoro-5-methylphenyl)-5-(4-methyl-1H-1,3-benzodiazol-2-yl)pyridin-4-yl]azetidin-3-yl}methanamine]
